According to patent US20230081426A1, “COMPOUNDS AND METHODS FOR KRAS MODULATION AND INDICATIONS THEREFOR” (Plexxikon Inc., priority 2020, published 2023):

What follows are compounds tested against T1, G12D-mutant human KRAS (amino acid residues 1-188) (Homo sapiens, UniProt P01116, G12D) (assay: KRAS Binding Disruption Assay (AlphaScreen; biotinylated KRpep-2d analogue or RAF1-RBD), G12D). Conditions: KRAS G12D; geometric mean; read-out: KRAS GMean IC50 (uM) MUTATION: G12D.
T1 construct: G12D or G12C-mutant human KRAS (amino acid residues 1-188) with FLAG tag; made in house; host or cells: E. coli
T1 sequence (P01116 1-188 isoform P01116-2 G12D): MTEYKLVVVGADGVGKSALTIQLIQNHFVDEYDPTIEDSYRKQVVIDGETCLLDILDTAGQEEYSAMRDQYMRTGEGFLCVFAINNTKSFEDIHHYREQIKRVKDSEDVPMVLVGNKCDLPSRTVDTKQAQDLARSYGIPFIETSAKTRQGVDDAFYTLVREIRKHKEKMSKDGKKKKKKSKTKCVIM
Description: Compound binding disrupts the interaction of KRpep-2d or RAF1-RBD with KRAS, leading to a decrease in Alpha signal.
All assay components were prepared in 20 mM HEPES (pH 7.5), 100 mM NaCl, 5 mM MgCl2, 0.01% Tween-20, and 0.01% BSA. Biotinylated analogues of KRpep-2d were custom synthesized. The binding disruption assays were performed using 5-20 nM of mutant KRAS and 5-20 nM of either biotinylated KRpep-2d analogue or RAF1-RBD. 19 μL of KRAS protein and 4 μL of biotinylated KRpep-2d or RAF1-RBD were added to the wells of a 384-well plate containing 1 μL of various concentrations of test compound or DMSO vehicle. 16 wells containing KRAS, biotinylated KRpep-2d or RAF1-RBD, and 5% DMSO served as high controls. 16 wells containing KRAS only and 5% DMSO served as low controls. Binding reactions were incubated for 1 hour at 25° C., then Anti-Flag Acceptor and Streptavidin Donor Alpha beads were added at a final concentration of 10 μg/mL for an additional hour at room temperature. Alpha signal was read out on a Perkin Elmer Envision HTS instrument. The percentage inhibition at individual compound concentrations relative to high and low controls was calculated. The data were analyzed by using nonlinear regression to generate IC50 values.
Work on Cc1ccc2[nH]ncc2c1-c1c(F)cc2c(N3C[C@H]4CC[C@@H](C3)N4)nc(OCC34CCCN3CCC4)nc2c1F [P-0593, 4-((1R,5S)-3,8-diazabicyclo[3.2.1]octan-3-yl)-6,8-difluoro-7-(5-methyl-1H-indazol-4-yl)-2-((tetrahydro-1H-pyrrolizin-7a(5H)-yl)methoxy)quinazoline] yielded an IC50 of 0.0001 to 10 µM. Work on N#CCCc1cccc2[nH]cc(-c3ccc4c(N5C[C@H]6CC[C@@H](C5)N6)nc(OCC56CCCN5CCC6)nc4c3F)c12 [P-0519, 3-(3-(4-((1R,5S)-3,8-diazabicyclo[3.2.1]octan-3-yl)-8-fluoro-2-((tetrahydro-1H-pyrrolizin-7a(5H)-yl)methoxy)quinazolin-7-yl)-1H-indol-4-yl)propanenitrile] yielded an IC50 of 0.0001 to 10 µM. Compound C=Cc1cccc2cccc(-c3ccc4c(N5C[C@H]6CC[C@@H](C5)N6)nc(OCC56CCCN5CCC6)nc4c3F)c12 [P-0538, 4-((1R,5S)-3,8-diazabicyclo[3.2.1]octan-3-yl)-8-fluoro-2-((tetrahydro-1H-pyrrolizin-7a(5H)-yl)methoxy)-7-(8-vinylnaphthalen-1-yl)quinazoline] has an IC50 of 0.0001 to 10 µM. For CN(C)C(=O)CCOc1nc(N2C[C@H]3CC[C@@H](C2)N3)c2ccc(-c3cc(O)cc4ccccc34)cc2n1 [P-0071, 3-((4-((1R,5S)-3,8-diazabicyclo[3.2.1]octan-3-yl)-7-(3-hydroxynaphthalen-1-yl)quinazolin-2-yl)oxy)-N,N-dimethylpropanamide], the IC50 was 0.0001 to 10 µM. Work on Cc1ccc2[nH]nc(C)c2c1-c1ccc2c(N3C[C@H]4CC[C@@H](C3)N4)nc(OCC34CCCN3CCC4)nc2c1F [P-0548, 4-((1R,5S)-3,8-diazabicyclo[3.2.1]octan-3-yl)-7-(3,5-dimethyl-1H-indazol-4-yl)-8-fluoro-2-((tetrahydro-1H-pyrrolizin-7a(5H)-yl)methoxy)quinazoline] yielded an IC50 of 0.0001 to 10 µM. With CC(C)(C)C(CO)COc1nc(N2C[C@H]3CC[C@@H](C2)N3)c2ccc(-c3cc(O)cc4ccccc34)c(F)c2n1 (stereo partly drawn) [P-0585, 4-(4-((1R,5S)-3,8-diazabicyclo[3.2.1]octan-3-yl)-8-fluoro-2-(2-(hydroxymethyl)-3,3-dimethylbutoxy)quazolin-7-yl)naphthalen-2-ol] the IC50 was 0.0001 to 10 µM. CCc1cccc2c1N(c1ncc3c(N4C[C@H]5CC[C@@H](C4)N5)nc(OCC45CCCN4CCC5)nc3c1F)CCC2 [P-0558, 4-((1R,5S)-3,8-diazabicyclo[3.2.1]octan-3-yl)-7-(8-ethyl-3,4-dihydroquinolin-1(2H)-yl)-8-fluoro-2-((tetrahydro-1H-pyrrolizin-7a(5H)-yl)methoxy)pyrido[4,3-d]pyrimidine] gave an IC50 of 0.0001 to 10 µM. Work on Oc1cc(-c2ccc3c(N4C[C@H]5CC[C@@H](C4)N5)nc(OCC4(C(F)(F)F)CC4)nc3c2F)c2ccccc2c1 [P-0536, 4-(4-((1R,5S)-3,8-diazabicyclo[3.2.1]octan-3-yl)-8-fluoro-2-((1-(trifluoromethyl)cyclopropyl)methoxy)quinazolin-7-yl)naphthalen-2-ol] yielded an IC50 of 0.0001 to 10 µM. Work on Cc1ccc(N)cc1-c1c(F)cc2c(N3C[C@H]4CC[C@@H](C3)N4)nc(OCC34CCCN3CCC4)nc2c1F [P-0596, 3-(4-((1R,5S)-3,8-diazabicyclo[3.2.1]octan-3-yl)-6,8-difluoro-2-((tetrahydro-1H-pyrrolizin-7a(5H)-yl)methoxy)quinazolin-7-yl)-4-methylaniline] yielded an IC50 of 0.0001 to 10 µM. Cc1nccc2[nH]cc(-c3ccc4c(N5C[C@H]6CC[C@@H](C5)N6)nc(OCC56CCCN5CCC6)nc4c3F)c12 [P-0605, 4-((1R,5S)-3,8-diazabicyclo[3.2.1]octan-3-yl)-8-fluoro-7-(4-methyl-1H-pyrrolo[3,2-c]pyridin-3-yl)-2-((tetrahydro-1H-pyrrolizin-7a(5H)-yl)methoxy)quinazoline] was tested, and the IC50 was 10 to 100 µM. Oc1cc(-c2ccc3c(N4C[C@H]5CC[C@@H](C4)N5Cc4ccccn4)nc(OCC45CCCN4CCC5)nc3c2)c2ccccc2c1 [P-0076, 4-(4-((1R,5S)-8-(pyridin-2-ylmethyl)-3,8-diazabicyclo[3.2.1]octan-3-yl)-2-((tetrahydro-1H-pyrrolizin-7a(5H)-yl)methoxy)quinazolin-7-yl)naphthalen-2-ol] gave an IC50 of 0.0001 to 10 µM. Compound CN(C)CCN(C)c1nc(N2C[C@H]3CC[C@@H](C2)N3)c2ccc(-c3cc(O)cc4ccccc34)cc2n1 [P-0057, 4-(4-((1R,5S)-3,8-diazabicyclo[3.2.1]octan-3-yl)-2-((2-(dimethylamino)ethyl)(methyl)amino)quinazolin-7-yl)naphthalen-2-ol] has an IC50 of 10 to 100 µM. With Oc1cc(-c2ccc3c(N4C[C@H]5CC[C@@H](C4)N5)nc(NCC4CCCC4O)nc3c2F)c2ccccc2c1 (stereo partly drawn) [P-0556, 4-(4-((1R,5S)-3,8-diazabicyclo[3.2.1]octan-3-yl)-8-fluoro-2-(((2-hydroxycyclopentyl)methyl)amino)quinazolin-7-yl)naphthalen-2-ol] the IC50 was 0.0001 to 10 µM. CCc1cccc2c1N(c1ccc3c(N4C[C@H]5CC[C@@H](C4)N5)nc(OC[C@@H]4CCCN4C)nc3c1F)CCC2 [P-0560, 4-((1R,5S)-3,8-diazabicyclo[3.2.1]octan-3-yl)-7-(8-ethyl-3,4-dihydroquinolin-1(2H)-yl)-8-fluoro-2-(((S)-1-methylpyrrolidin-2-yl)methoxy)quinazoline] showed an IC50 of 0.0001 to 10 µM. For OCC1(CNc2nc(N3C[C@H]4CC[C@@H](C3)N4)c3ccc(-c4cc(O)cc5ccccc45)c(F)c3n2)COC1 [P-0581, 4-(4-((1R,5S)-3,8-diazabicyclo[3.2.1]octan-3-yl)-8-fluoro-2-(((3-(hydroxymethyl)oxetan-3-yl)methyl)amino)quinazolin-7-yl)naphthalen-2-ol], the IC50 was 0.0001 to 10 µM. With CC(C)(CNC(=O)OCc1ccccc1)COc1nc(N2C[C@H]3CC[C@@H](C2)N3)c2ccc(-c3cc(O)cc4ccccc34)c(F)c2n1 [P-0592, benzyl (3-((4-((1R,5S)-3,8-diazabicyclo[3.2.1]octan-3-yl)-8-fluoro-7-(3-hydroxynaphthalen-1-yl)quinazolin-2-yl)oxy)-2,2-dimethylpropyl)carbamate] the IC50 was 0.0001 to 10 µM. For OCc1cccc2[nH]cc(-c3ccc4c(N5C[C@H]6CC[C@@H](C5)N6)nc(OCC56CCCN5CCC6)nc4c3F)c12 [P-0574, (3-(4-((1R,5S)-3,8-diazabicyclo[3.2.1]octan-3-yl)-8-fluoro-2-((tetrahydro-1H-pyrrolizin-7a(5H)-yl)methoxy)quinazolin-7-yl)-1H-indol-4-yl)methanol], the IC50 was 0.0001 to 10 µM. Compound CC(=O)Nc1ccc(Cl)c(-c2c(F)cc3c(N4C[C@H]5CC[C@@H](C4)N5)nc(OCC45CCCN4CCC5)nc3c2F)c1 [P-0594, N-(3-(4-((1R,5S)-3,8-diazabicyclo[3.2.1]octan-3-yl)-6,8-difluoro-2-((tetrahydro-1H-pyrrolizin-7a(5H)-yl)methoxy)quinazolin-7-yl)-4-chlorophenyl)acetamide] has an IC50 of 0.0001 to 10 µM. Work on OCC1(CNc2nc(N3C[C@H]4CC[C@@H](C3)N4)c3ccc(-c4cc(O)cc5ccccc45)c(F)c3n2)CC(F)(F)C1 [P-0579, 4-(4-((1R,5S)-3,8-diazabicyclo[3.2.1]octan-3-yl)-2-(((3,3-difluoro-1-(hydroxymethyl)cyclobutyl)methyl)amino)-8-fluoroquinazolin-7-yl)naphthalen-2-ol] yielded an IC50 of 0.0001 to 10 µM. CN(C)C(=O)COc1nc(N2C[C@H]3CC[C@@H](C2)N3)c2ccc(-c3cc(O)cc4ccccc34)cc2n1 [P-0070, 2-((4-((1R,5S)-3,8-diazabicyclo[3.2.1]octan-3-yl)-7-(3-hydroxynaphthalen-1-yl)quinazolin-2-yl)oxy)-N,N-dimethylacetamide] was tested, and the IC50 was 10 to 100 µM. OCC1(COc2nc(N3C[C@H]4CC[C@@H](C3)N4)c3ccc(-c4cc(O)cc5ccccc45)c(F)c3n2)CC(O)C1 (stereo partly drawn) [P-0583, 4-(4-((1R,5S)-3,8-diazabicyclo[3.2.1]octan-3-yl)-8-fluoro-2-((3-hydroxy-1-(hydroxymethyl)cyclobutyl)methoxy)quinazolin-7-yl)naphthalen-2-ol] was tested, and the IC50 was 0.0001 to 10 µM. CN1CCC[C@H]1COc1nc(N2C[C@H]3CC[C@@H](C2)N3)c2cc(Cl)c(-c3cc(O)cc4ccccc34)c(OCC(F)(F)F)c2n1 [P-0033, 4-(4-((1R,5S)-3,8-diazabicyclo[3.2.1]octan-3-yl)-6-chloro-2-(((S)-1-methylpyrrolidin-2-yl)methoxy)-8-(2,2,2-trifluoroethoxy)quinazolin-7-yl)naphthalen-2-ol] gave an IC50 of 0.0001 to 10 µM. Compound CN(C)CC(CN)Oc1nc(N2C[C@H]3CC[C@@H](C2)N3)c2ccc(-c3cc(O)cc4ccccc34)cc2n1 (stereo partly drawn) [P-0074, 4-(2-((1-amino-3-(dimethylamino)propan-2-yl)oxy)-4-((1R,5S)-3,8-diazabicyclo[3.2.1]octan-3-yl)quinazolin-7-yl)naphthalen-2-ol] has an IC50 of 0.0001 to 10 µM. CN1CCC1COc1nc(N2C[C@H]3CC[C@@H](C2)N3)c2ccc(-c3cc(O)cc4ccccc34)cc2n1 (stereo partly drawn) [P-0086, 4-(4-((1R,5S)-3,8-diazabicyclo[3.2.1]octan-3-yl)-2-((1-methylazetidin-2-yl)methoxy)quinazolin-7-yl)naphthalen-2-ol] was tested, and the IC50 was 0.0001 to 10 µM.

Same assay, conditions: Table 3; geometric mean; bridged vs non-bridged R1; read-out: KRAS GMean IC50 (uM) MUTATION: G12D
In the case of CN1CCC[C@H]1COc1nc(N2CCNCC2)c2cc(Cl)c(-c3cc(O)cc4ccccc34)c(F)c2n1 [Non-bridged version of P-0001, reference compound], the IC50 is reported as 1.11 µM.
